Measurements taken from ChEMBL document CHEMBL1212896, “Discovery of novel cyanodihydropyridines as potent mineralocorticoid receptor antagonists” (J Med Chem, 2010).
pIC50: −log10 of the molar value. Values after ≈ are worked out from the molar mass of the structure shown. Active and inactive are the calls of the source. The rule behind the calls is not given here.

Experiments:
Progesterone receptor = target: T1, Progesterone receptor (Homo sapiens, UniProt P06401); experiment: Antagonist activity at progesterone receptor LBD expressed in human HUH7 cells coexpressing GAL4 by luciferase reporter gene assay; assay type: functional, cell-based, Huh-7
T1 sequence (P06401 whole entry): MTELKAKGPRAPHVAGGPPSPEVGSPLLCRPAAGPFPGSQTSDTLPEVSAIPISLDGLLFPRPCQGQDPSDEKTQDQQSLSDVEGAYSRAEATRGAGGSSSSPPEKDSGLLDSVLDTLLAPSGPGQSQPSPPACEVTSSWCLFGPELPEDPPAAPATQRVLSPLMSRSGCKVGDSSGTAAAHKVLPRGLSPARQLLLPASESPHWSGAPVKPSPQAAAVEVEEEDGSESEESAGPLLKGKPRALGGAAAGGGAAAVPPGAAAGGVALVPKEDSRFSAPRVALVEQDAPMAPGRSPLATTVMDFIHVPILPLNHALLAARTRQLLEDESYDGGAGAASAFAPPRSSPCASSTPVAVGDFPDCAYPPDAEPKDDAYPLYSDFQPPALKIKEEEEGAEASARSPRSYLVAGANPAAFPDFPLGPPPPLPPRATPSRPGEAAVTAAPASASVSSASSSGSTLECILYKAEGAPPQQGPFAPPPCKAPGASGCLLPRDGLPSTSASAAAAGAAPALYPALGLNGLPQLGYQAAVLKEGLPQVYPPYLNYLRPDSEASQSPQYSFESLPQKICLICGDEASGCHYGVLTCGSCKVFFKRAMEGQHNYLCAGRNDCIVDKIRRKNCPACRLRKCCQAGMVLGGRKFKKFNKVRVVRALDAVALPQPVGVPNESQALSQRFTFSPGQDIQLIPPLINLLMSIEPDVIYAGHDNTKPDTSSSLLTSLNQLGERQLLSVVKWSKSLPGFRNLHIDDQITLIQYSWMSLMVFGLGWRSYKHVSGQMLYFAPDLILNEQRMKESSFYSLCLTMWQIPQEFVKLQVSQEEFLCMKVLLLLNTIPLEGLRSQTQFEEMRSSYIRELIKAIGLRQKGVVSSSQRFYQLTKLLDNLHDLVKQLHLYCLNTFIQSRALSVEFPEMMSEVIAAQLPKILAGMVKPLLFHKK

[1] = target: T2, Mineralocorticoid receptor (Homo sapiens, UniProt P08235)
T2 sequence (P08235 whole entry): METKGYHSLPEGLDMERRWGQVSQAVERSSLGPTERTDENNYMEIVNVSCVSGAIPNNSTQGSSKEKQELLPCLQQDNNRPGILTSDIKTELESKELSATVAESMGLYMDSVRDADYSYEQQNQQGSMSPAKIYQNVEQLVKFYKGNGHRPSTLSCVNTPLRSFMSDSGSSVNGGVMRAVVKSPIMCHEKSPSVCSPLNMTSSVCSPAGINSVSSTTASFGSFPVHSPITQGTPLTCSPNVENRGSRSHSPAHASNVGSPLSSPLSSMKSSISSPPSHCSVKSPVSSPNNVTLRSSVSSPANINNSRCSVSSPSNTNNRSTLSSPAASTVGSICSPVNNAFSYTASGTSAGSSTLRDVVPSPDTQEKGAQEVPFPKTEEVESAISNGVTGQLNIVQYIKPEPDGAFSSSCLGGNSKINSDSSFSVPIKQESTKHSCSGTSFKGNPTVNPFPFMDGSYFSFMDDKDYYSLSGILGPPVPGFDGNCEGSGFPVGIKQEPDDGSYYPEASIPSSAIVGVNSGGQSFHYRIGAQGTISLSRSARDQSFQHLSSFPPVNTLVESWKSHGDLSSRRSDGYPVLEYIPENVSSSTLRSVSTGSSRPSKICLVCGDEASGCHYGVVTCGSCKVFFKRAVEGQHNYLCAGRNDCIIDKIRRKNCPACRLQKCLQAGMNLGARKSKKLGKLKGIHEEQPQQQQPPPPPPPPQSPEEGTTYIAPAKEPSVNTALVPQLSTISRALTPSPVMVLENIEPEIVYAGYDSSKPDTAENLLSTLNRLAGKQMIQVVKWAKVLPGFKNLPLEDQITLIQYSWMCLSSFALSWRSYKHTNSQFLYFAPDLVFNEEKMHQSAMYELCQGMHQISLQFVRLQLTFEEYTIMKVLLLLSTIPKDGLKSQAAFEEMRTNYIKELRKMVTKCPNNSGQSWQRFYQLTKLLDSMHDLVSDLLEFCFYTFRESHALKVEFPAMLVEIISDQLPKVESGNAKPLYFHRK
Description: Antagonist activity at mineralocorticoid receptor LBD expressed in human HUH7 cells coexpressing GAL4 by luciferase reporter gene assay

Cytochrome P450 2D6 = Cytochrome P450 2D6 (Homo sapiens, UniProt P10635); experiment: Inhibition of CYP2D6; assay type: ADME
Chain of Cytochrome P450 2D6 (P10635 whole entry, the tested form may be a part): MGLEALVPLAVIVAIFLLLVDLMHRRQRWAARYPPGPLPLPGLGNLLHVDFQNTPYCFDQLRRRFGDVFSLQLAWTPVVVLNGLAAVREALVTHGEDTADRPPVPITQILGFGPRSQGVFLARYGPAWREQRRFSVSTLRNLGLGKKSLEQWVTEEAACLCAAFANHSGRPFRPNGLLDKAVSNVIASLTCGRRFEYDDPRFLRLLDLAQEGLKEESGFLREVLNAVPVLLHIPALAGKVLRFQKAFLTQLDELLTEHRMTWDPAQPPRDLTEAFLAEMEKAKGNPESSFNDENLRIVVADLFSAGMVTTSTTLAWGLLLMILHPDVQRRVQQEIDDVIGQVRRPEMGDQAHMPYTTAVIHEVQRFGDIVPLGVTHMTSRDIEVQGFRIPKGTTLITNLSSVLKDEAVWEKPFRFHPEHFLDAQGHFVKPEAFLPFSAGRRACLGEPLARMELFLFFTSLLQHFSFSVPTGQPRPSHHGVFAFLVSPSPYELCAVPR

Glucocorticoid receptor = target: T3, Glucocorticoid receptor (Homo sapiens, UniProt P04150); experiment: Antagonist activity at glucocorticoid receptor LBD expressed in human HUH7 cells coexpressing GAL4 by luciferase reporter gene assay; assay type: functional, cell-based, Huh-7
T3 sequence (P04150 whole entry): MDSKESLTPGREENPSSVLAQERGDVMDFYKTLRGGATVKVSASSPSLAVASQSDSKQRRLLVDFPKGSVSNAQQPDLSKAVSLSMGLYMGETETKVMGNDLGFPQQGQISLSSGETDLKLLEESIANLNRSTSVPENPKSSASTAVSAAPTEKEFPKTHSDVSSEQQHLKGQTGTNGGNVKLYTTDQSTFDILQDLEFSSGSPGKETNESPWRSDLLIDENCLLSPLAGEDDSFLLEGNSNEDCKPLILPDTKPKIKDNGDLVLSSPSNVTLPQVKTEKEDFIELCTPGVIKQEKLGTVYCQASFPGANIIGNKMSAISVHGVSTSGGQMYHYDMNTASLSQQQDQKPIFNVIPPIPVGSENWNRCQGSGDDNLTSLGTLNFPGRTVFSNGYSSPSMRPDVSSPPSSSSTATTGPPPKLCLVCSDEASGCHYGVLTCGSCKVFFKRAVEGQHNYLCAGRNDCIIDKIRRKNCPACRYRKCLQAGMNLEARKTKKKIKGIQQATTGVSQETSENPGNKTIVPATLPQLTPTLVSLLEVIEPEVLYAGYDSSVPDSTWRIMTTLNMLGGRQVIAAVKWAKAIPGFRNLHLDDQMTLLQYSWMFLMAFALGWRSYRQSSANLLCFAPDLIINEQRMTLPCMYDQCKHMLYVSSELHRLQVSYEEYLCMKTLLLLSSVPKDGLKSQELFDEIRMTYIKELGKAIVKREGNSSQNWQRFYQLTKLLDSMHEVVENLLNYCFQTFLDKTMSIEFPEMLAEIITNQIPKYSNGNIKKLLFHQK

Cytochrome P450 3A4 = Cytochrome P450 3A4 (Homo sapiens, UniProt P08684); experiment: Inhibition of CYP3A4; assay type: ADME
Chain of Cytochrome P450 3A4 (P08684 whole entry): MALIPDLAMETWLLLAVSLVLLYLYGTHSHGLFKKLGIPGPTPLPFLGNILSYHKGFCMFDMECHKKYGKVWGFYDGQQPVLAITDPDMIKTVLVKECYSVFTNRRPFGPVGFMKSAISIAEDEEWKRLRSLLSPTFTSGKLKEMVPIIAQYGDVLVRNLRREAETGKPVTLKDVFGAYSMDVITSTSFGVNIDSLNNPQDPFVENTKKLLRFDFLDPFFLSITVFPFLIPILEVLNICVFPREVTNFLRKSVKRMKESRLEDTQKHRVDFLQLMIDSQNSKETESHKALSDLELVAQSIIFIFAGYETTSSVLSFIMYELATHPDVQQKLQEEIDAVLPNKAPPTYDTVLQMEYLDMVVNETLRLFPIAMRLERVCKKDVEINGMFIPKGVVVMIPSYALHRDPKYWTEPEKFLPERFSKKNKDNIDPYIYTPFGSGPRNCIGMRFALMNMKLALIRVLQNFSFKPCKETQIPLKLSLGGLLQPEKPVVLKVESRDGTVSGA

[2] = Intrinsic clearance in rat liver microsomes; assay type: ADME, Microsome
Cytochrome P450 2C9 = Cytochrome P450 2C9 (Homo sapiens, UniProt P11712); experiment: Inhibition of CYP2C9; assay type: ADME
Chain of Cytochrome P450 2C9 (P11712 whole entry, the tested form may be a part): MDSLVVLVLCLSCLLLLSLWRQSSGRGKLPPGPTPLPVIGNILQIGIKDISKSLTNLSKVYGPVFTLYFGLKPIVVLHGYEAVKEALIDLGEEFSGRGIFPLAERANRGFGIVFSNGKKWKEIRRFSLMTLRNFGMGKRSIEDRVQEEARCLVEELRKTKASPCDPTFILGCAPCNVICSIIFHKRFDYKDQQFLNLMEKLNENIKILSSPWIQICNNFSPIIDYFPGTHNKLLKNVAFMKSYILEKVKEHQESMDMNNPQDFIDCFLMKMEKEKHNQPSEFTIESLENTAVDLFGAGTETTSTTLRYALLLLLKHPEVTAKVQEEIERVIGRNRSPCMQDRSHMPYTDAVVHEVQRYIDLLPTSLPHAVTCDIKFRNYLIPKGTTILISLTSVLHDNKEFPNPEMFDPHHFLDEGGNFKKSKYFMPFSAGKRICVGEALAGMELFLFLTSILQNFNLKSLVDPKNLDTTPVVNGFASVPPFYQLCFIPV

Androgen receptor = target: T4, Androgen receptor (Homo sapiens, UniProt P10275); experiment: Antagonist activity at androgen receptor LBD expressed in human HUH7 cells coexpressing GAL4 by luciferase reporter gene assay; assay type: functional, cell-based, Huh-7
T4 sequence (P10275 whole entry): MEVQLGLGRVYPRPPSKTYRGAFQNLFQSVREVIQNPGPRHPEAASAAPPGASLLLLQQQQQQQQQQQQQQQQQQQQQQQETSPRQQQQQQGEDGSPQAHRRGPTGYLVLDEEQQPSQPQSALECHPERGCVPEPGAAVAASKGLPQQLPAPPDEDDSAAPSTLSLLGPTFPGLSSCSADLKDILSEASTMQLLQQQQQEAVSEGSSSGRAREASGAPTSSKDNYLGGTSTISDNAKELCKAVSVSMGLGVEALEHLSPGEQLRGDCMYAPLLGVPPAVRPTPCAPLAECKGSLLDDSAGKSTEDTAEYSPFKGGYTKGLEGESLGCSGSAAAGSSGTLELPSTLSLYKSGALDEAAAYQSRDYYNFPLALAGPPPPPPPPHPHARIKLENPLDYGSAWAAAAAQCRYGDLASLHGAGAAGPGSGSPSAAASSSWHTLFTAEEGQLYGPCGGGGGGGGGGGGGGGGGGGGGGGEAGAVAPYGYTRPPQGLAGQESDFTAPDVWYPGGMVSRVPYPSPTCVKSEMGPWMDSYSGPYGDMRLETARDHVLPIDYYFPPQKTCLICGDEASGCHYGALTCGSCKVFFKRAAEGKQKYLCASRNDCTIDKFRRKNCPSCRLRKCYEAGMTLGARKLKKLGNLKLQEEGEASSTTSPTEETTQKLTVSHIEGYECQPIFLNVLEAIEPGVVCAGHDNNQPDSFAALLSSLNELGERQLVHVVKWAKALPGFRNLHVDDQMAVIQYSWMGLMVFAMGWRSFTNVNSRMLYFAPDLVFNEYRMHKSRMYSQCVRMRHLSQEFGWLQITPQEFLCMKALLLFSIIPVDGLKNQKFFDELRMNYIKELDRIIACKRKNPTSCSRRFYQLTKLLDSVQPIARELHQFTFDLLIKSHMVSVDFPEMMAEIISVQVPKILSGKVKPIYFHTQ

[3] = Solubility of the compound; assay type: physicochemical
Liver microsomes [4] = experiment: Metabolic stability in rat liver microsomes assessed as compound remaining; assay type: ADME, Microsome
Liver microsomes [5] = experiment: Metabolic stability in human liver microsomes assessed as compound remaining; assay type: ADME, Microsome
Rattus norvegicus [6] = experiment: Protection of renal injury in Dahl salt-sensitive rat model assessed as reduction of urinal albumin excretion at 60 mg/kg, po bid for 21 days; assay type: functional, organism-based; set-up: dose 60 mg/kg
Rattus norvegicus [7] = experiment: Antihypertensive activity in Dahl salt-sensitive rat model assessed as decrease of systolic blood pressure at 60 mg/kg, po bid for 21 days; assay type: functional, organism-based; set-up: dose 60 mg/kg; conditions: Artery
Rattus norvegicus [8] = experiment: Antihypertensive activity in Dahl salt-sensitive rat model assessed as decrease of systolic blood pressure at 100 mg/kg administered with chow diet for 21 days; assay type: functional, organism-based; set-up: dose 100 mg/kg; conditions: Artery

| SMILES | pIC50 (Progesterone receptor) | pIC50 [1] | pIC50 (Cytochrome P450 2D6) | pIC50 (Glucocorticoid receptor) | pIC50 (Cytochrome P450 3A4) | CLint scaled [2] [mL/min/kg] | pIC50 (Cytochrome P450 2C9) | pIC50 (Androgen receptor) | solubility [3] [µM] | Stability (Liver microsomes [4]) [%] | Stability (Liver microsomes [5]) [%] | Activity (Rattus norvegicus [6]) | Activity (Rattus norvegicus [7]) | Activity (Rattus norvegicus [8]) |
| --- | --- | --- | --- | --- | --- | --- | --- | --- | --- | --- | --- | --- | --- | --- |
| COC(=O)C1=C(Cn2cnnn2)NC(C)=C(C#N)[C@H]1c1ccc(F)cc1Cl | 5.14 | 7.28 | < 5.00 | 6.00 | < 5.00 | 8.71 | < 5.00 | 6.52 | 32 (≈ 12.4 µg/mL) |  |  |  |  |  |
| COC(=O)C1=C(Cn2cccn2)NC(C)=C(C#N)C1c1ccc(F)cc1Cl (stereo unspecified) | 5.26 | 7.27 | < 5.00 | 5.48 | 5.96 |  | 6.22 |  | > 5 | 31 | 2 |  |  |  |
| COC(=O)[C@@H]1CC2=CC(=O)CC[C@]2(C)[C@@]23O[C@@H]2C[C@@]2(C)[C@@H](CC[C@@]24CCC(=O)O4)[C@H]13 |  |  |  |  |  |  |  |  |  |  |  | Active | Active | Active |
